From patent US10463644B2, “Uses of sesquiterpene lactone compounds and their derivatives in drugs preparation” (ACCENDATECH, priority 2013, dated 2019)
Like-named read-outs stand apart in the source and are kept apart here.

Legend:
cancer cells = assay: Survival rate of cancer cells after test compound is added (flow cytometry, Annexin V-FITC/PI, clinical specimen); type: cell-based, patient; conditions: Homo sapiens, 18 h, read-out: Survival rate (%) All cells (Stem cells and ordinary cells)
Summary of the method: (§1)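 Patient tumour or leukaemia cells, identified by cancer-specific stem-cell markers (CD34+/CD38+ for AML), are treated with compound for 18 hours in serum-free IMDM. Apoptosis is then measured as Annexin V-FITC/PI staining by flow cytometry.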

[1] = tested on: PGE2 secreted by synoviocyte; assay: Content of PGE2 in culture supernatant of synoviocyte of RA model rats given test compound; type: in vivo; conditions: rat RA model, dose 30 mg/kg.2d; normal control 8.34 ± 1.29, NaCl 32.44 ± 10.32
Summary of the method: (§2)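 Rat RA model: compounds given at 30 mg/kg.2d, with normal control and NaCl groups. Synoviocyte culture supernatants assayed for secreted TNF-α and PGE2 by one referenced method, IL-1β by another.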

normal cells = assay: Survival rate of normal cells after test compound is added (flow cytometry, Annexin V-FITC/PI); type: cell-based; conditions: 18 h
Summary of the method: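 Mononuclear cells from fresh or cryopreserved clinical samples, isolated by Ficoll gradient and held in serum-free IMDM (1×10^6/mL), received compound for 18 h. After labelling with marker antibodies (CD34+CD38+ for AML), Annexin V-FITC and PI staining was analysed by flow cytometry.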

[2] = tested on: IL-1β secreted by synoviocyte; assay: Content of IL-1β in culture supernatant of synoviocyte of RA model rats given test compound; type: in vivo; conditions: rat RA model, dose 30 mg/kg.2d; normal control 0.16 ± 0.034, NaCl 0.49 ± 0.136
Summary of the method: as §2

cancer stem cells = assay: Survival rate of cancer stem cells after test compound is added (flow cytometry, Annexin V-FITC/PI, clinical specimen); type: cell-based, patient; conditions: Homo sapiens, 18 h
Summary of the method: as §1

[3] = Head and neck squamous cell carcinomas
[4] = read-out: Survival rate (%) All cells (Stem cells and ordinary cells)
[5] = read-out: Survival rate (%) Stem cells

## C=C1C(=O)O[C@@H]2[C@@H]3[C@@H](CC[C@@]3(C)O)[C@](C)(O)CC[C@@H]12 [Compound 49]
Cancer cells; AML
  viability at 10 µM: 92%
  viability at 20 µM: 89%
Cancer cells; Brain glioma
  viability at 10 µM: 88%
  viability at 20 µM: 87%
Cancer cells; Brain tumor
  viability at 10 µM: 88%
  viability at 20 µM: 87%
Cancer cells; Breast cancer
  viability at 10 µM: 89%
  viability at 20 µM: 87%
Cancer cells; CLL
  viability at 10 µM: 91%
  viability at 20 µM: 85%
Cancer cells; CML
  viability at 10 µM: 90%
  viability at 20 µM: 86%
Cancer cells; Children hepatoblastoma
  viability at 10 µM: 93%
  viability at 20 µM: 92%
Cancer cells; Colon adenocarcinoma
  viability at 10 µM: 93%
  viability at 20 µM: 86%
Cancer cells; Colorectal cancer
  viability at 10 µM: 88%
  viability at 20 µM: 85%
Cancer cells; Gastric cancer
  viability at 10 µM: 92%
  viability at 20 µM: 89%
Cancer cells; Gastrointestinal tumor
  viability at 10 µM: 92%
  viability at 20 µM: 89%
Cancer cells; Glioma
  viability at 10 µM: 88%
  viability at 20 µM: 89%
Cancer cells; [3]
  viability at 10 µM: 91%
  viability at 20 µM: 87%
Cancer cells; Laryngeal cancer
  viability at 10 µM: 91%
  viability at 20 µM: 88%
Cancer cells; Liver cancer
  viability at 10 µM: 93%
  viability at 20 µM: 86%
Cancer cells; Lung adenocarcinoma
  viability at 10 µM: 91%
  viability at 20 µM: 88%
Cancer cells; Lung cancer
  viability at 10 µM: 88%
  viability at 20 µM: 82%
Cancer cells; Malignant melanoma
  viability at 10 µM: 88%
  viability at 20 µM: 87%
Cancer cells; Nasopharynx cancer
  viability at 10 µM: 93%
  viability at 20 µM: 86%
Cancer cells; Ovarian cancer
  viability at 10 µM: 93%
  viability at 20 µM: 88%
Cancer cells; Pancreatic cancer
  viability at 10 µM: 87%
  viability at 20 µM: 83%
Cancer cells; Prostate cancer
  viability at 10 µM: 92%
  viability at 20 µM: 89%
Cancer cells; Retinoblastoma
  viability at 10 µM: 92%
  viability at 20 µM: 89%
Cancer cells; Skin cancer
  viability at 10 µM: 93%
  viability at 20 µM: 86%
[1]
  Content of PGE2 in culture supernatant of synoviocyte (x ± s): 24.25 ± 1.94 ng/mL
Normal cells; [4]
  viability at 10 µM: 96%
  viability at 20 µM: 95%
Normal cells; [5]
  viability at 10 µM: 94%
  viability at 20 µM: 92%
[2]
  Content of IL-1β in culture supernatant of synoviocyte (x ± s): 0.39 ± 0.075 ng/mL
Cancer stem cells; AML
  viability at 10 µM: 85%
  viability at 20 µM: 77%
Cancer stem cells; Brain glioma
  viability at 10 µM: 83%
  viability at 20 µM: 79%
Cancer stem cells; Brain tumor
  viability at 10 µM: 83%
  viability at 20 µM: 79%
Cancer stem cells; Breast cancer
  viability at 10 µM: 82%
  viability at 20 µM: 79%
Cancer stem cells; CLL
  viability at 10 µM: 82%
  viability at 20 µM: 74%
Cancer stem cells; CML
  viability at 10 µM: 87%
  viability at 20 µM: 76%
Cancer stem cells; Children hepatoblastoma
  viability at 10 µM: 86%
  viability at 20 µM: 78%
Cancer stem cells; Colon adenocarcinoma
  viability at 10 µM: 85%
  viability at 20 µM: 79%
Cancer stem cells; Colorectal cancer
  viability at 10 µM: 82%
  viability at 20 µM: 74%
Cancer stem cells; Gastric cancer
  viability at 10 µM: 85%
  viability at 20 µM: 77%
Cancer stem cells; Gastrointestinal tumor
  viability at 10 µM: 85%
  viability at 20 µM: 77%
Cancer stem cells; Glioma
  viability at 10 µM: 82%
  viability at 20 µM: 76%
Cancer stem cells; [3]
  viability at 10 µM: 82%
  viability at 20 µM: 73%
Cancer stem cells; Laryngeal cancer
  viability at 10 µM: 84%
  viability at 20 µM: 78%
Cancer stem cells; Liver cancer
  viability at 10 µM: 85%
  viability at 20 µM: 79%
Cancer stem cells; Lung adenocarcinoma
  viability at 10 µM: 84%
  viability at 20 µM: 78%
Cancer stem cells; Lung cancer
  viability at 10 µM: 79%
  viability at 20 µM: 73%
Cancer stem cells; Malignant melanoma
  viability at 10 µM: 82%
  viability at 20 µM: 79%
Cancer stem cells; Nasopharynx cancer
  viability at 10 µM: 84%
  viability at 20 µM: 77%
Cancer stem cells; Ovarian cancer
  viability at 10 µM: 86%
  viability at 20 µM: 76%
Cancer stem cells; Pancreatic cancer
  viability at 10 µM: 81%
  viability at 20 µM: 75%
Cancer stem cells; Prostate cancer
  viability at 10 µM: 85%
  viability at 20 µM: 77%
Cancer stem cells; Retinoblastoma
  viability at 10 µM: 85%
  viability at 20 µM: 77%
Cancer stem cells; Skin cancer
  viability at 10 µM: 85%
  viability at 20 µM: 79%
